These are literature values, as cited in patent publication US9925200B2, “Stable formulations of testosterone undecanoate” (Merck Sharp & Dohme B.V., priority 2014, dated 2018).

Experiment in data set [1]: not given
The source holds these as a separate data set.

Take `CCCCCCCCCCC(=O)O[C@H]1CC[C@H]2[C@@H]3CCC4=CC(=O)CC[C@]4(C)[C@H]3CC[C@]12C` [Testosterone undecanoate]: the water solubility result is on record as “very low”. Moreover, the “Log P” value in data set [1] is 9.1.

The term Log P denotes the decadic logarithm of the partition coefficient of the neutral form, usually between octanol and water.
